Ten compounds from patent US20260022143A1, “Cyclic Peptide Inhibitors of IL-23” (JANSSEN PHARMACEUTICA NV, priority 2022, published 2026) can be followed below.

One data set addresses T1, IL-23R (Homo sapiens, UniProt Q5VWK5).
T1 construct: host or cells: HEK293
T1 sequence (Q5VWK5 24-629): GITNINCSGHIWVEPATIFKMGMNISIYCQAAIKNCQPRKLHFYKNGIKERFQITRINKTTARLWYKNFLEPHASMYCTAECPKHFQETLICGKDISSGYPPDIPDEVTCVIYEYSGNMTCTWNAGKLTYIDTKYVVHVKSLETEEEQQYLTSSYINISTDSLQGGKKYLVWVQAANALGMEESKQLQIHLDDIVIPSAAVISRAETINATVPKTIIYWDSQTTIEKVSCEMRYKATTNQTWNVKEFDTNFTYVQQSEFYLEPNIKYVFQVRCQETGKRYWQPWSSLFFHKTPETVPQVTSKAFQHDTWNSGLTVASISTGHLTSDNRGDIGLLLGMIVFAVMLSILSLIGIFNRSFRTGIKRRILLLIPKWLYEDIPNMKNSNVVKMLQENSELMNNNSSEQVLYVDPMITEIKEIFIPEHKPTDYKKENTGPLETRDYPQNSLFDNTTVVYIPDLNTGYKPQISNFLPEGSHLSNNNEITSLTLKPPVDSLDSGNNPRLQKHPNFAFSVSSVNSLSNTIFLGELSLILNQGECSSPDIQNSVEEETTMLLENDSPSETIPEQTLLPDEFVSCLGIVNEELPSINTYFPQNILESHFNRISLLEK
The data set is described as follows: IL23R Reporter Assay. The following applies: HEK293 cells containing IL-23R, IL-12RP1 and STAT-inducible firefly luciferase reporter; 10 ng/mL IL-23 (EC90); 5 h at 37° C.; read-out: IL23R Reporter Assay. The class given is cell-based.

Data set [1] is described as follows: Exposed Polar Surface Area (EPSA). The class given is physicochemical. The following applies: SFC on Chirex 3014 column; sample 1 mM DMSO stock; read-out: EPSA. Put shortly: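 Retention-based polarity: supercritical CO2 with 20 mM ammonium formate in MeOH (5–60%, 20%/min), Chirex 3014 column, 35 °C. Calibrated against 8 standards to give EPSA (Å^2); each sample measured twice.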

Starred links: 1 amine or outer side, 2 acyl side, 3 side chain; linkers in the order of their positions; H or OH if unused. Positions of bridges follow the written chain, without caps; N, C: chain ends. Non-standard residues stand in square brackets, D forms with d. Residues, ends and D or L forms follow the SMILES beside them. *: point of attachment. Me3N+CH2CH2(OCH2CH2)4CO = C[N+](C)(C)CCOCCOCCOCCOCCC(=O)*; Me3N+(CH2)2O(CH2)2O(CH2)2CO = C[N+](C)(C)CCOCCOCCC(=O)*; Trp(7-Me) = Cc1cccc2c(C[C@H](N)C(=O)O)c[nH]c12; Decanoyl(3,6,9-trioxa) = COCCOCCOCC(=O)*; X1 = CN(CC[C@H](N[*:1])C(=O)[*:2])[*:3]; 2Nal = N[C@@H](Cc1ccc2ccccc2c1)C(=O)O; AEF = NCCOc1ccc(C[C@H](N)C(=O)O)cc1; X24 = C[N+](C)(CCN[*:1])CC(=O)[*:2]; 3Pal = N[C@@H](Cc1cccnc1)C(=O)O; N(CH2CH2)2CF2 = FC1(F)CCN(*)CC1; Lys(Me) = CNCCCC[C@H](N)C(=O)O; X7 = COCCOCCOCCOCCOCCOCCC(=O)*; Pen = CC(C)(S)[C@H](N)C(=O)O; X55 = OC1(C(F)(F)F)CCN(*)CC1; Thp = NC1(C(=O)O)CCOCC1; Aib = CC(C)(N)C(=O)O; Sar = CNCC(=O)O

Take `CC(=O)NCCCC[C@@H]1NC(=O)[C@H](Cc2c[nH]c3c(C)cccc23)NC(=O)[C@H]([C@@H](C)O)NC(=O)[C@H](CC(N)=O)NC(=O)[C@@H](NC(C)=O)C(C)(C)SSC(C)(C)[C@@H](C(=O)N[C@@H](Cc2ccc(OCCN)cc2)C(=O)N[C@@H](Cc2ccc3ccccc3c2)C(=O)NC2(C(=O)N[C@@H](CCC(=O)O)C(=O)N[C@@H](CC(N)=O)C(=O)N[C@@H](Cc3cccnc3)C(=O)N(C)CC(=O)N3CCC(O)(C(F)(F)F)CC3)CCOCC2)NC1=O` [compound 135] (Ac-[Pen]NT[Trp(7-Me)]K(Ac)[Pen][AEF][2Nal][Thp]EN[3Pal][Sar]-X55; disulfide 1-6 (inferred)): on IL-23R, the IC50 worked out at 3.7 nM. In addition, in data set [1], the EPSA worked out at 171 A^2.

Regarding `CC(=O)NCCCC[C@@H]1NC(=O)[C@H](Cc2c[nH]c3c(C)cccc23)NC(=O)[C@H]([C@@H](C)O)NC(=O)[C@H](CC(N)=O)NC(=O)[C@@H](NC(C)=O)C(C)(C)SSC(C)(C)[C@@H](C(=O)N[C@@H](Cc2ccc(OCCN)cc2)C(=O)N[C@@H](Cc2ccc3ccccc3c2)C(=O)NC2(C(=O)N[C@@H](CCC(=O)O)C(=O)N[C@@H](CC(N)=O)C(=O)N[C@@H](Cc3cccnc3)C(=O)N(C)CC(=O)N3CCC(F)(F)CC3)CCOCC2)NC1=O` [compound 136] (Ac-[Pen]NT[Trp(7-Me)]K(Ac)[Pen][AEF][2Nal][Thp]EN[3Pal][Sar]-{N(CH2CH2)2CF2}; disulfide 1-6 (inferred)), the IC50 on IL-23R was found to be 2.6 nM. In data set [1], the EPSA came out at 169 A^2.

As for `Cc1cccc2c(C[C@@H]3NC(=O)[C@H]([C@@H](C)O)NC(=O)[C@H](CC(=O)N(C)C)NC(=O)[C@@H](NC(=O)CCOCCOCC[N+](C)(C)C)C(C)(C)SSC(C)(C)[C@@H](C(=O)N[C@@H](Cc4ccc(OCCN)cc4)C(=O)N[C@@H](Cc4ccc5ccccc5c4)C(=O)NC4(C(=O)N[C@@H](CCC(=O)N(C)C)C(=O)N[C@@H](CC(N)=O)C(=O)N[C@@H](Cc5cccnc5)C(=O)N(C)CC(=O)N(C)C)CCOCC4)NC(=O)[C@H](CCC(=O)N(C)C)NC3=O)c[nH]c12` [compound 139, cPEG3aCO-Pen(3)-N(N(Me)2)-T-7MeW-Q(N(Me)2)-Pen(3)-AEF-2Nal-THP-Q(N(Me)2)-N-3Pya-Sar-CON(Me)2] ({Me3N+(CH2)2O(CH2)2O(CH2)2CO}-[Pen]D(NMe2)T[Trp(7-Me)]E(NMe2)[Pen][AEF][2Nal][Thp]E(NMe2)N[3Pal][Sar]-NMe2; disulfide 1-6), the IC50 at IL-23R came out at 3.4 nM. Also, in data set [1], the EPSA came out at 150 A^2.

For the compound `COCCOCCOCCOCCOCCOCCC(=O)N(C)CC[C@@H]1NC(=O)[C@H](Cc2c[nH]c3c(C)cccc23)NC(=O)[C@H]([C@@H](C)O)NC(=O)[C@H](CC(=O)N(C)C)NC(=O)[C@@H](NC(C)=O)C(C)(C)SSC(C)(C)[C@@H](C(=O)N[C@@H](Cc2ccc(OCCN)cc2)C(=O)N[C@@H](Cc2ccc3ccccc3c2)C(=O)NC2(C(=O)N[C@@H](CCN(C)C(=O)CCOCCOCCOCCOCCOCCOC)C(=O)N[C@@H](CC(N)=O)C(=O)N[C@@H](Cc3cccnc3)C(=O)N(C)CC(=O)N(C)C)CCOCC2)NC1=O` [compound 141, MeCO-Pen(3)-N(N(Me)2)-T-7MeW-Dab(NMeCOmPEG6)-Pen(3)-AEF-2Nal-THP-Dab(NMeCOmPEG6)-N-3Pya-Sar-CON(Me)2] (Ac-[Pen]D(NMe2)T[Trp(7-Me)][X1](X7)[Pen][AEF][2Nal][Thp][X1](X7)N[3Pal][Sar]-NMe2; disulfide 1-6), the IC50 on IL-23R stood at 5.7 nM. Moreover, in data set [1], the EPSA stood at 140 A^2.

For `Cc1cccc2c(C[C@@H]3NC(=O)[C@H]([C@@H](C)O)NC(=O)[C@H](CC(=O)N(C)C)NC(=O)[C@@H](NC(=O)CCOCCOCC[N+](C)(C)C)C(C)(C)SSC(C)(C)[C@@H](C(=O)N[C@@H](Cc4ccc(OCCN)cc4)C(=O)N[C@@H](Cc4ccc5ccccc5c4)C(=O)NC4(C(=O)NC(C)(C)C(=O)N[C@@H](CC(N)=O)C(=O)N[C@@H](Cc5cccnc5)C(=O)N(C)CC(=O)N(C)C)CCOCC4)NC(=O)C(C)(C)NC3=O)c[nH]c12` [compound 142, cPEG3aCO-Pen(3)-N(N(Me)2)-T-7MeW-AIB-Pen(3)-AEF-2Nal-THP-AIB-N-3Pya-Sar-CON(Me)2] ({Me3N+(CH2)2O(CH2)2O(CH2)2CO}-[Pen]D(NMe2)T[Trp(7-Me)][Aib][Pen][AEF][2Nal][Thp][Aib]N[3Pal][Sar]-NMe2; disulfide 1-6), the IC50 at IL-23R turned out to be 6.6 nM. The EPSA in data set [1] was 166 A^2.

Take `COCCOCCOCCOCCOCCOCCC(=O)NCC[N+](C)(C)CC(=O)N[C@@H]1C(=O)N[C@@H](CC(=O)N(C)C)C(=O)N[C@@H]([C@@H](C)O)C(=O)N[C@@H](Cc2c[nH]c3c(C)cccc23)C(=O)N[C@@H](CCN(C)C(=O)CCOCCOCCOCCOCC[N+](C)(C)C)C(=O)N[C@H](C(=O)N[C@@H](Cc2ccc(OCCN)cc2)C(=O)N[C@@H](Cc2ccc3ccccc3c2)C(=O)NC2(C(=O)N[C@@H](CCC(=O)O)C(=O)N[C@@H](CC(N)=O)C(=O)N[C@@H](Cc3cccnc3)C(=O)N(C)CC(=O)N(C)C)CCOCC2)C(C)(C)SSC1(C)C` [compound 143, mPEG6CO-SP6-Pen(3)-N(N(Me)2)-T-7MeW-Dab(NMecPEG5a)-Pen(3)-AEF-2Nal-THP-E-N-3Pya-Sar-CON(Me)2] (X7-[X24][Pen]D(NMe2)T[Trp(7-Me)][X1](Me3N+CH2CH2(OCH2CH2)4CO)[Pen][AEF][2Nal][Thp]EN[3Pal][Sar]-NMe2; disulfide 2-7 (inferred)): the IC50 at IL-23R is 6.5 nM. In data set [1], the EPSA is 161 A^2.

As for `COCCOCCOCC(=O)NCC[N+](C)(C)CC(=O)N[C@@H]1C(=O)N[C@@H](CC(=O)N(C)C)C(=O)N[C@@H]([C@@H](C)O)C(=O)N[C@@H](Cc2c[nH]c3c(C)cccc23)C(=O)N[C@@H](CCC(=O)N(C)C)C(=O)N[C@H](C(=O)N[C@@H](Cc2ccc(OCCN)cc2)C(=O)N[C@@H](Cc2ccc3ccccc3c2)C(=O)NC2(C(=O)N[C@@H](CCC(=O)N(C)C)C(=O)N[C@@H](CC(N)=O)C(=O)N[C@@H](Cc3cccnc3)C(=O)N(C)CC(N)=O)CCOCC2)C(C)(C)SSC1(C)C` [compound 146, mPEG3CO-SP6-Pen(3)-N(N(Me)2)-T-7MeW-Q(N(Me)2)-Pen(3)-AEF-2Nal-THP-Q(N(Me)2)-N-3Pya-Sar-CONH2] ({Decanoyl(3,6,9-trioxa)}-[X24][Pen]D(NMe2)T[Trp(7-Me)]E(NMe2)[Pen][AEF][2Nal][Thp]E(NMe2)N[3Pal][Sar]-NH2; disulfide 2-7), the IC50 at IL-23R was determined as 3.8 nM. In data set [1], the EPSA is 152 A^2.

Regarding `Cc1cccc2c(C[C@@H]3NC(=O)[C@H]([C@@H](C)O)NC(=O)[C@H](CC(=O)N(C)C)NC(=O)[C@@H](NC(=O)CCOCCOCC[N+](C)(C)C)C(C)(C)SSC(C)(C)[C@@H](C(=O)N[C@@H](Cc4ccc(OCCN)cc4)C(=O)N[C@@H](Cc4ccc5ccccc5c4)C(=O)NC4(C(=O)N[C@@H](CCC(=O)N(C)C)C(=O)N[C@@H](CC(N)=O)C(=O)N[C@@H](Cc5cccnc5)C(=O)N(C)CC(N)=O)CCOCC4)NC(=O)[C@H](CCC(=O)N(C)C)NC3=O)c[nH]c12` [compound 147, cPEG3aCO-Pen(3)-N(N(Me)2)-T-7MeW-Q(N(Me)2)-Pen(3)-AEF-2Nal-THP-Q(N(Me)2)-N-3Pya-Sar-CONH2] ({Me3N+(CH2)2O(CH2)2O(CH2)2CO}-[Pen]D(NMe2)T[Trp(7-Me)]E(NMe2)[Pen][AEF][2Nal][Thp]E(NMe2)N[3Pal][Sar]-NH2; disulfide 1-6), the IC50 at IL-23R worked out at 3.8 nM. The EPSA in data set [1] is 156 A^2.

`COCCOCCOCC(=O)NCC[N+](C)(C)CC(=O)N[C@@H]1C(=O)N[C@@H](CC(=O)N(C)C)C(=O)N[C@@H]([C@@H](C)O)C(=O)N[C@@H](Cc2c[nH]c3c(C)cccc23)C(=O)N[C@@H](CCCCN(C)C(C)=O)C(=O)N[C@H](C(=O)N[C@@H](Cc2ccc(OCCN)cc2)C(=O)N[C@@H](Cc2ccc3ccccc3c2)C(=O)NC2(C(=O)N[C@@H](CCCCNC(C)=O)C(=O)N[C@@H](CC(N)=O)C(=O)N[C@@H](Cc3cccnc3)C(=O)N(C)CC(N)=O)CCOCC2)C(C)(C)SSC1(C)C` [compound 148, mPEG3CO-SP6-Pen(3)-N(N(Me)2)-T-7MeW-K(NMeAc)-Pen(3)-AEF-2Nal-THP-K(Ac)-N-3Pya-Sar-CONH2] ({Decanoyl(3,6,9-trioxa)}-[X24][Pen]D(NMe2)T[Trp(7-Me)][Lys(Me)](Ac)[Pen][AEF][2Nal][Thp]K(Ac)N[3Pal][Sar]-NH2; disulfide 2-7): at IL-23R, the IC50 amounted to 2.6 nM. Besides, the EPSA in data set [1] stood at 153 A^2.

For `CC(=O)NCCCC[C@H](NC(=O)C1(NC(=O)[C@H](Cc2ccc3ccccc3c2)NC(=O)[C@H](Cc2ccc(OCCN)cc2)NC(=O)[C@H]2NC(=O)[C@H](CCCCN(C)C(C)=O)NC(=O)[C@H](Cc3c[nH]c4c(C)cccc34)NC(=O)[C@H]([C@@H](C)O)NC(=O)[C@H](CC(=O)N(C)C)NC(=O)[C@@H](NC(=O)CCOCCOCC[N+](C)(C)C)C(C)(C)SSC2(C)C)CCOCC1)C(=O)N[C@@H](CC(N)=O)C(=O)N[C@@H](Cc1cccnc1)C(=O)N(C)CC(N)=O` [compound 149, cPEG3aCO-Pen(3)-N(N(Me)2)-T-7MeW-K(NMeAc)-Pen(3)-AEF-2Nal-THP-K(Ac)-N-3Pya-Sar-CONH2] ({Me3N+(CH2)2O(CH2)2O(CH2)2CO}-[Pen]D(NMe2)T[Trp(7-Me)][Lys(Me)](Ac)[Pen][AEF][2Nal][Thp]K(Ac)N[3Pal][Sar]-NH2; disulfide 1-6), the IC50 at IL-23R came out at 2.1 nM. Also, the EPSA in data set [1] is 157 A^2.
